This note sets out measurements from patent US12528792B2, “Sulfonamide compounds and the use thereof in the treatment of cancer” (TROBIO THERAPEUTICS PTY LTD, priority 2019, dated 2026).

Experiment [1] deals with SK-N-SH neuroblastoma cells. Nature of the experiment: Cytotoxicity assay, MTS viability. It is filed as cell-based. To be noted: Homo sapiens, 72 hours. The method in brief:
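SK-N-SH cells, 2×10^3/well in DMEM with 10% FBS at 37 °C, treated with 1:2 compound series from 100 μM; MTS viability read after 72 hours. Viability normalised to vehicle control; EC50 taken from dose-response curves.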

Experiment [2] concerns the target T1, Tpm3.1-containing actin microfilaments in SK-N-SH neuroblastoma cells (Homo sapiens, UniProt P06753).
T1 construct: expressed in transfected cells; host or cells: SK-N-SH neuroblastoma cells
Nature of the experiment: Imaging and quantitation of Tpm3.1 mCherry and 488-Atto-Phalloidin actin filaments. It is filed as cell-based. As to conditions: 24 hours post-treatment, two concentrations, FIG. 2 and FIG. 3. The protocol: The ability of compounds 24, 26 and 143 to disrupt Tpm3.1-containing actin microfilaments was investigated in SK—N—SH neuroblastoma cells that express Tpm3.1 labelled with the mCherry fluorophore. Cells were seeded at 3×10^4 cells per well in a volume of 1000 μL complete media onto a 12 well plate containing 13 mm coverslips and left to plate down for 24 hours prior to treatment. Cells were then treated with DMSO and two concentrations of the test compounds. 24 hours post-treatment, cells were fixed with 16% paraformaldehyde (PBS) and stained with 488-Atto-Phalloidin to visualise the actin filament bundles. Single plane images were obtained using the Olympus IX83 epi-fluorescence microscope. Ten fields of view were collected for both Tpm3.1 mCherry fluorophore (FIG. 2) and 488-Atto-Phalloidin (FIG. 3) with each treatment condition.
Quantitation of either Tpm3.1 mCherry filaments or 488-Atto-Phalloidin filaments was performed using ImageJ 1.52p software (ImageJ, NIH). The mean pixel intensity from a cell was measured by using a line across the entire cell cytoplasmic area above or below the nuclear region. The line was made to cross the filament bundles at a 90° angle for the measurement rather than run along a single filament. A total of n=100 cells were measured from ten fields of view. […]

A further experiment deals with F-actin/Tpm3.1 (Homo sapiens, UniProt P06753). Nature of the experiment: Actin depolymerisation assay. Format: biochemical. To be noted: 50 μmol/L test compound, FIG. 1. The protocol:
A 12 μmol/L solution of labelled F-actin was prepared by polymerising the monomeric actin (35% pyrene labelled Rabbit Muscle (Cytoskeleton Inc)) into filaments in the presence of buffer T (100 mmol/L NaCl; 10 mmol/L Tris HCl PH 7.5; 2 mmol/L MgCl2; 1 mmol/L EGTA; 0.5 mmol/L DTT) with added ATP (0.2 mmol/L), for 1 hour in the dark at room temperature. Tpm3.1 (10 μmol/L) was reduced in buffer T containing 1 mmol/L DTT at 70° C. for 6 minutes and centrifuged at 60,000 rpm for 30 minutes to remove nonreduced dimers. […] Duplicate samples were diluted 12-fold using an F-actin polymerisation buffer (100 mmol/L NaCl; 10 mmol/L Tris HCl PH 7; 2 mmol/L MgCl2; 1 mmol/L EGTA; 0.2 mmol/L ATP; 1 mmol/L DTT) and the depolymerisation rates of F-actin alone, F-actin/Tpm3.1, and the F-actin/Tpm3.1/test compound filament complex were measured using a Costar 3915 fluorescence plate reader (407 nm) at 36-second intervals for 160 minutes at room temperature. Data were normalized to the initial fluorescence value and polymerisation curves of duplicate samples were fitted to a two-phase exponential decay model using OriginPro 9.1 (OriginLab) (FIG. 1A). Percent polymerisation was determined at t160 as a function of to (100%) (FIG. 1B, p<0.0001).

T1 sequence (P06753 1-248 isoform P06753-2): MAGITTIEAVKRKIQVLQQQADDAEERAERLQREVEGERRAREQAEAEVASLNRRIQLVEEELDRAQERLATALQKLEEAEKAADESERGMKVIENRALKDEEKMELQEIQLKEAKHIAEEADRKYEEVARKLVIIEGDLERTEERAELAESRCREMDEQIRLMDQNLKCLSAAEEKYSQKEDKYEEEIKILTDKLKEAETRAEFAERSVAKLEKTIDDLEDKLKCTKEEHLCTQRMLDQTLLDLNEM

`O=C(Nc1ccc(C(F)(F)F)cc1)c1ccn(S(=O)(=O)c2ccc3[nH]ccc3c2)c1` [Compound 26, 1-((1H-indol-5-yl)sulfonyl)-N-(4-(trifluoromethyl)phenyl)-1H-pyrrole-3-carboxamide] showed an IC50 in experiment [1] of 7.87 µM. Besides, the “Disruption of Tpm3.1-containing actin microfilaments” value in experiment [2] is reported as “disrupt Tpm3.1-containing actin microfilaments in a dose-dependent manner”. For the same compound, the “Inhibition of Tpm3.1 protection of actin filaments from depolymerisation” value on F-actin/Tpm3.1 is given as “inhibit the ability of Tpm3.1 to protect actin filaments from depolymerisation”.

What is called IC50 is the point on the concentration scale where inhibition reaches its midpoint. A higher IC50 goes with weaker potency.
